Laboratory results published in ChEMBL document CHEMBL4270641, “ATP citrate lyase (ACLY) inhibitors: An anti-cancer strategy at the crossroads of glucose and lipid metabolism” (Eur J Med Chem, 2018).

Legend:
ATP-citrate synthase [1] = target: T1, ATP-citrate synthase (Rattus norvegicus, UniProt P16638); experiment: (§1) Inhibition of rat liver ACLY
T1 sequence (P16638 whole entry): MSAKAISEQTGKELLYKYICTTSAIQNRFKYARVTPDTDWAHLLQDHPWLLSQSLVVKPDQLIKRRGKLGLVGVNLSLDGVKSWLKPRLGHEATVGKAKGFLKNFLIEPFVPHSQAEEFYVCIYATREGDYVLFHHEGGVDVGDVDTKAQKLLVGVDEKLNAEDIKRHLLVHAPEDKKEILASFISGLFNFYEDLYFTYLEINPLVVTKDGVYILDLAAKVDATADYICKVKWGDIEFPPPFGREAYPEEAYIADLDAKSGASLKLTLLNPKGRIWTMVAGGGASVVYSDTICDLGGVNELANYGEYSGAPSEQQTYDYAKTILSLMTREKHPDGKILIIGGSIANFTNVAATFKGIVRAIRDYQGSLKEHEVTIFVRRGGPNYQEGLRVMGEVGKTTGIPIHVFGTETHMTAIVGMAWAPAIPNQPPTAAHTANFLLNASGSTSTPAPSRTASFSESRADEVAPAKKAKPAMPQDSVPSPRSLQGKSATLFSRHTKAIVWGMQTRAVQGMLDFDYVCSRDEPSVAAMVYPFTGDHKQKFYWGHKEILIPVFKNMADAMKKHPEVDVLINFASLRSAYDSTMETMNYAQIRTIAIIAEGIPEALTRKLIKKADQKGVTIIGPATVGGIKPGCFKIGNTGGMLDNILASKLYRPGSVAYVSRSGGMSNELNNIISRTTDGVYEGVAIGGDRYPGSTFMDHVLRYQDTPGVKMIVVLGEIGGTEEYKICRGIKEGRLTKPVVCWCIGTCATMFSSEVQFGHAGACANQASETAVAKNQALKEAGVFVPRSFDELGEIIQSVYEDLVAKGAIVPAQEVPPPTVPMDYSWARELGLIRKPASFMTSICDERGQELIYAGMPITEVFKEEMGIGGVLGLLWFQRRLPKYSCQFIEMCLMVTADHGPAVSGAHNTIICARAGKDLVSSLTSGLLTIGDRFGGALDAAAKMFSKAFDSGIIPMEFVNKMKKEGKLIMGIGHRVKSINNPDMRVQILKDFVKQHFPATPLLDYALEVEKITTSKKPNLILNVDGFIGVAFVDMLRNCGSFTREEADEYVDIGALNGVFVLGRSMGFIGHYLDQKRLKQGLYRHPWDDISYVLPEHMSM

LNCaP = experiment: Antiproliferative activity against human LNCAP cells; type: functional, cell-based
PC-3 = experiment: Antiproliferative activity against human PC3 cells; type: functional, cell-based
ATP-citrate synthase [2] = target: T1, ATP-citrate synthase; experiment: Reversible inhibition of rat liver ACLY
[3] = target: T2, ATP-citrate synthase (Rattus norvegicus) (UniProt P16638); experiment: as §1; settings: concentration not given here
T2 sequence (whole entry): T1 sequence (P16638 whole entry)

ATP-citrate synthase [4] = target: T3, ATP-citrate synthase (Homo sapiens, UniProt P53396); experiment: Inhibition of ACLY (unknown origin)
T3 sequence (P53396 whole entry): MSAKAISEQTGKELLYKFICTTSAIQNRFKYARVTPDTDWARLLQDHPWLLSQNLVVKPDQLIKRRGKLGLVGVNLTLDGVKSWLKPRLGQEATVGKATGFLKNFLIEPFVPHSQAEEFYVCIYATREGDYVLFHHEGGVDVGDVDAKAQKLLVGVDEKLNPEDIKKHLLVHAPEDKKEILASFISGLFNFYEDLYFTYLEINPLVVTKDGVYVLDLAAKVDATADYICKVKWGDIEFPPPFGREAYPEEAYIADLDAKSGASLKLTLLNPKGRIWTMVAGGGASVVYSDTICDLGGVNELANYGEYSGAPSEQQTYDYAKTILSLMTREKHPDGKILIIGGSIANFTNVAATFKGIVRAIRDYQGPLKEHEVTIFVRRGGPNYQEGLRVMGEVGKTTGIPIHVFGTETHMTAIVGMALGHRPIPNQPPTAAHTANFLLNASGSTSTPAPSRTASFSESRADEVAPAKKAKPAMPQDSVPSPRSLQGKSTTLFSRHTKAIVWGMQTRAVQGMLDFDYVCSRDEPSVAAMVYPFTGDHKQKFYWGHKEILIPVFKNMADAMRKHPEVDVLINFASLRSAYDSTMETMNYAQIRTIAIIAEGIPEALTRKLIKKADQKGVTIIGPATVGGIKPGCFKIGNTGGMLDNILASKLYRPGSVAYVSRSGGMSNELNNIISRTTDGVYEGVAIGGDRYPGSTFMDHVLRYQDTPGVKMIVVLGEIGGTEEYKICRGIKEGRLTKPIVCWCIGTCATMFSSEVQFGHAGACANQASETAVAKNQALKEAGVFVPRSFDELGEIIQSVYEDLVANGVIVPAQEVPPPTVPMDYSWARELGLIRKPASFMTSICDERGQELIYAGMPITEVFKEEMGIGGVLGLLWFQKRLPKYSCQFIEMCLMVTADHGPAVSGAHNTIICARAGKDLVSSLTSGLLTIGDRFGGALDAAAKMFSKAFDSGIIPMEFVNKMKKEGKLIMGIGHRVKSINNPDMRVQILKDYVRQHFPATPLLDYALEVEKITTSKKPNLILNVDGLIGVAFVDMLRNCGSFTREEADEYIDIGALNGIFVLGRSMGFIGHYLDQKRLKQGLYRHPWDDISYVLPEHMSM

ATP-citrate synthase [5] = target: T3, ATP-citrate synthase
Description: Competitive inhibition of human liver ACLY using varying levels of citrate as substrate

Rattus norvegicus [6] = experiment: In vivo inhibition of ACLY in po dosed rat assessed as reduction in plasma cholesterol level after 7 days relative to control; type: functional
Canis familiaris [7] = experiment: In vivo inhibition of ACLY in po dosed dog assessed as reduction in plasma triglyceride level after 15 days relative to control; type: functional, Canis lupus familiaris
Rattus norvegicus [8] = experiment: In vivo inhibition of ACLY in po dosed rat assessed as reduction in plasma triglyceride level after 7 days relative to control; type: functional
Canis familiaris [9] = experiment: In vivo inhibition of ACLY in po dosed dog assessed as reduction in plasma cholesterol level after 15 days relative to control; type: functional, Canis lupus familiaris
[10] = target: T4, ATP-citrate synthase (Homo sapiens) (UniProt P53396); experiment: Inhibition of ACLY in human HepG2 cells assessed as reduction in cholesterol synthesis at 30 uM relative to control; type: cell-based
T4 sequence (whole entry): T3 sequence (P53396 whole entry)

A549 = experiment: Antiproliferative activity against human A549 cells; type: functional, cell-based
SK-OV-3 = experiment: Antiproliferative activity against human SKOV3 cells; type: functional, cell-based
[11] = target: T4, ATP-citrate synthase (Homo sapiens); experiment: Inhibition of ACLY in human HepG2 cells assessed as reduction in fatty acid synthesis at 30 uM relative to control; type: cell-based
Rattus norvegicus [12] = experiment: In vivo inhibition of ACLY in rat administered through diet relative to control; type: functional

Work on `CC(C)CC[C@H]1C(=O)O[C@H](C)[C@H](NC(=O)c2cccc(NC=O)c2O)C(=O)O[C@@H](C)[C@@H]1OC(=O)CC(C)C` yielded a Ki (ATP-citrate synthase [1]) of 4 µM.
`CC(=O)OC(C)(C)/C=C/C(=O)[C@](C)(O)[C@H]1[C@H](O)C[C@@]2(C)[C@@H]3CC=C4[C@@H](C[C@H](O)C(=O)C4(C)C)[C@]3(C)C(=O)C[C@]12C` was tested, and the IC50 (LNCaP) was 0.1 µM and the IC50 (PC-3) was 0.1 µM.
Work on `CS(=N)(=O)C[C@@](O)(CC(=O)O)C(=O)O` (stereo not given in full) yielded a Ki (ATP-citrate synthase [2]) of 250 µM.
Compound `O=CC(=O)c1ccccc1` has an inhibition [3] of 85%.
In the case of `CCCCCC[C@H]1C(=O)O[C@H](C)[C@H](NC(=O)c2cccc(NC=O)c2O)C(=O)O[C@@H](C)[C@@H]1OC(=O)C(C)C`, the Ki (ATP-citrate synthase [1]) is reported as 4 µM.
`CCC(C)C(=O)O[C@H]1[C@H](C)OC(=O)[C@@H](NC(=O)c2cccc(NC=O)c2O)[C@@H](C)OC(=O)[C@@H]1CCC(C)C` (stereo not given in full) gave a Ki (ATP-citrate synthase [1]) of 4 µM.
Work on `CC12Oc3ccc(-c4ccc5c(c4O)C(=O)C4=C(O)C6OC6(C)C(OC(=O)CC(=O)O)C4(C)O5)c(O)c3C(=O)C1=C(O)C1OC1(C)C2O` (stereo not given) yielded an IC50 (ATP-citrate synthase [1]) of 9.63 µM.
With `O=C1C[C@@](O)(C(=O)O)[C@@H](C(=O)O)O1` the Ki (ATP-citrate synthase [1]) was 50 to 100 µM.
Work on `CC(=O)C(C)=O` yielded an inhibition [3] of 35%.
Compound `O=C1C(c2ccc(O)c(O)c2)=c2c(c3c(n2CCc2ccc(O)cc2)=C(c2ccc(O)c(O)c2)C(=O)c2cc(O)c(O)cc2-3)-c2cc(O)c(O)cc21` [PURPURONE] has an IC50 (ATP-citrate synthase [4]) of 7 µM.
Work on `O=C(O)C[C@@](O)(C(=O)O)[C@H](O)C(=O)O` yielded a Ki (ATP-citrate synthase [5]) of 300 µM.
For `CCCCCC[C@H]1C(=O)O[C@H](C)[C@H](NC(=O)c2cccc(NC=O)c2O)C(=O)O[C@@H](C)[C@@H]1OC(=O)CCC`, the Ki (ATP-citrate synthase [1]) was 4 µM.
For `O=C(O)C[C@@](O)(C[C@H](O)CCCCCCc1ccc(Cl)cc1Cl)C(=O)O`, the “inhibition (INH)” value (Rattus norvegicus [6]) was “<=46%”, the “inhibition (INH)” value (Canis familiaris [7]) was “<=38%” and the “inhibition (INH)” value (Rattus norvegicus [8]) was “<=80%”. For the same compound, the “inhibition (INH)” value (Canis familiaris [9]) was “<=23%”.
In the case of `O=C(O)C[C@@]1(O)C[C@@H](CCCCCCc2ccc(Cl)cc2Cl)OC1=O`, the inhibition [10] is reported as 91%, the IC50 (A549) is reported as 24 µM and the IC50 (PC-3) is reported as 26 µM. The IC50 (SK-OV-3) was 53 µM and the inhibition [11] was 82%.
For `N[C@@H](CCC(=O)O)C(=O)O` [GLUTAMIC ACID], the Ki (ATP-citrate synthase [1]) was 300 µM.
With `Clc1cccc(-c2ccc(Cl)c(Cl)c2Cl)c1Cl` the “inhibition (INH)” value (Rattus norvegicus [12]) was 69%.
`CC1=CC(O)=C2C(=O)c3c(ccc(-c4ccc5c(c4O)C(=O)C4=C(O)C6OC6(C)C(OC(=O)CC(=O)O)C4(C)O5)c3O)OC2(C)C1=O` (stereo not given) was tested, and the IC50 (ATP-citrate synthase [1]) was 6.19 µM.
